Assay results as given in patent US10294262B2, “7-deazapurine nucleosides for therapeutic uses” (Institute of Organic Chemistry and Biochemistry ASCR, V.V.I., priority 2009, dated 2019).

Experiments:
HS578 = experiment: Test A: Cytostatic cell culture assay (CC50), SRB, solid tumor cell lines; assay type: cell-based; conditions: Homo sapiens, Hs578, 120 h, read-out: CC50 Breast HS578
Method: (§1) Gemcitabine is obtained from Moravek Biochemicals (Brea, Calif.)
(§2) • 1. […] Fix one plate of each cell line with TCA. […] Discard TCA from the plates by flicking them gently. […] Store the plates at room temperature. These plates represent cell counts on day zero. • 4. […] Add 50 μL of the diluted compounds per well. […] Fix the plates with TCA. […] Discard TCA from the plates by flicking them gently. […] Leave at room temperature for 30 minutes. • 9. Flick the plates gently to discard SRB.

PC3 = experiment: as above; assay type: cell-based; conditions: Homo sapiens, PC-3, 120 h, read-out: CC50 Prostate PC3
Method: as §1, §2

NCI H23 = experiment: as above; assay type: cell-based; conditions: Homo sapiens, NCI-H23, 120 h, read-out: CC50 Lung NCI H23
Method: as §1, §2

HCT116 = experiment: as above; assay type: cell-based; conditions: Homo sapiens, HCT-116, 120 h, read-out: CC50 Colon HCT116
Method: as §1, §2

BT549 = experiment: as above; assay type: cell-based; conditions: Homo sapiens, BT-549, 120 h; BT549 breast tumor cells, 5 days, SRB; read-out: CC50 Breast BT549
Method: as §1, §2

A549 = experiment: as above; conditions: Homo sapiens, A549, 120 h, read-out: CC50 Lung A549
Source text: Test A: Cytostatic Cell Culture Assay (CC50) for Solid Tumor Cell Lines
This assay is based on quantification of cell mass determination by a colorimetric detection of the cell associated proteins. The assay relies on the ability of sulforhodamine B (SRB) to bind to protein components of cells that have been fixed to tissue-culture plates by trichloroacetic acid (TCA). SRB is a bright-pink aminoxanthene dye with two sulfonic groups that bind to basic amino-acid residues under mild acidic conditions, and dissociate under basic conditions. As the binding of SRB is stochiometric, the amount of dye extracted from stained cells is directly proportional to the cell mass.
Cell lines: All cell lines are obtained from ATCC (Manassas, Va.). Cultivation media containing Glutamax, and trypsin are purchased from Invitrogen (Carlsbad, Calif.). Doxorubicin, Tubercidin, Clofarabine, TCA and SRB are from Sigma-Aldrich (St. Louis, Mo.). Gemcitabine is obtained from Moravek Biochemicals (Brea, Calif.)
• 1. Trypsinize the sub-confluent cells, count them, and adjust the cell concentrations according to the cell counts listed in Table 1. • 2. Distribute the cells into the 96-well plates in 150 μL of media. Incubate the plates overnight in humidified CO2 incubator at 37° C. • 3. Fix one plate of each cell line with TCA. Discard the cultivation media from the plates by flicking them gently and add 100 μL cold 10% (vol/vol) TCA to each well. Incubate the plates at 4 degree refrigerator for 1 hour. Discard TCA from the plates by flicking them gently. Rinse plates four times in a washing basin containing tap water. Store the plates at room temperature. These plates represent cell counts on day zero. • 4. Prepare a set of medium solutions containing various concentrations of tested compounds by making 5-fold serial dilutions in 96-well plate. Add 50 μL of the diluted compounds per well. Include controls with untreated cells and cells treated with doxorubicin, tubercidin, clofarabine and/or gemcitabine. • 5. Incubate the plates for 5 days at 37° C. • 6. Fix the plates with TCA. Discard the cultivation media from the plates by flicking them gently and add 100 μL cold 10% (vol/vol) TCA to each well. Incubate the plates at 4 degree refrigerator for 1 hour. Discard TCA from the plates by flicking them gently. Rinse plates four times in a washing basin containing tap water. • 7. Remove excess water by tapping the plates face down, gently on a paper towel. Allow the plates to air-dry at room temperature. • 8. Add 100 μL of 0.057% SRB solution in 1% (vol/vol) acetic acid to each well of the plates fixed with TCA on day zero and five. Leave at room temperature for 30 minutes. • 9. Flick the plates gently to discard SRB. Rinse the plates four times with 1% (vol/vol) Acetic Acid. • 10. Store the plates at 37° incubator to facilitate faster drying. • 11. Once the plates are completely dry, add 200 μL of 10 mM Tris base solution (pH 10.5) to each well. Leave at room temperature for 30 minutes for SRB to solubilize. • 12. Measure the OD at 500 nm in a microplate reader. • 13. Calculate the percentage of cell-growth inhibition using the next formula: % of control cell growth=100×(ODsample−mean ODday0)/(ODneg control−mean ODday0). For CC50 determination, plot a dose-response curves between the compound concentration and percent of growth inhibition. CC50 values can be derived by fitting dose-response curves using sigmoidal dose response equation.

human tumor cell lines = experiment: Tests A and B, all tumor cell lines together; assay type: cell-based; conditions: read-out: CC50 Geometric mean all
Method: as §2
Plates were incubated for 5 days with tested compounds.

HCT15 = experiment: Test A: Cytostatic cell culture assay (CC50), SRB, solid tumor cell lines; assay type: cell-based; conditions: Homo sapiens, HCT-15, 120 h, read-out: CC50 Colon HCT15
Method: as §1, §2

Du145 = experiment: as above; assay type: cell-based; conditions: Homo sapiens, DU-145, 120 h, read-out: CC50 Prostate Du145
Method: as §1, §2

[1] = test system: MT-4 T-lymphoid cell line; experiment: Test B: Cytostatic cell culture assay (CC50), CellTiter Glo, lymphoid tumor cell lines; conditions: Homo sapiens, MT4, 120 h, read-out: CC50 T-lymphoid MT-4
Method: Test B: Cytostatic Cell Culture Assay (CC50) for Lymphoid Tumor Cell Lines
This test is typically performed with cell lines that are derived from hematological tumors and grow in suspension. An example of such cell line is human MT-4 T-lymphoid cell line used for the determination of cytostatic activity of tested compounds. […] Cells were passaged in suspension twice a week and maintained at densities below 500,000 cells/mL. For CC50 determination, cells were seeded into 384-well plates at 2,000 cells/well in 20 μL of culture medium. Compounds were serially diluted in culture medium and added in triplicate to a final assay volume of 40 μL/well. Plates were incubated for 5 days with tested compounds. At the end of incubation, cell viability was determined by addition of 40 μL of CellTiter Glo reagent followed by a luminescence read-out.
Data analysis and CC50 value calculations were done using GraphPad Prism software (GraphPad Software, San Diego, Calif.) by applying nonlinear regression.

melting point [°C]	Structure (SMILES)	CC50 (HS578) [nM]	CC50 (PC3) [nM]	CC50 (NCI H23) [nM]	CC50 (HCT116) [nM]	CC50 (BT549) [nM]	CC50 (A549) [nM]	CC50 (human tumor cell lines) [nM]	CC50 (HCT15) [nM]	CC50 (Du145) [nM]	CC50 [1] [nM]
205 to 207	Nc1ncnc2c1c(-c1ccc[nH]1)cn2[C@@H]1O[C@H](CO)[C@@H](O)[C@H]1O [Compound 2k, 4-Amino-5-(1H-pyrrol-2-yl)-7-(β-D-ribofuranosyl)-7H-pyrrolo[2,3-d]pyrimidine]	113	87.8	333	65.2	129	160	128	–	–	–
–	Nc1ncnc2c1c(-c1ccco1)cn2[C@@H]1O[C@H](CO)[C@@H](O)[C@H]1O [Compound 2f, 4-Amino-5-(furan-2-yl)-7-(β-D-ribofuranosyl)-7H-pyrrolo[2,3-d]pyrimidine]	17	4	294	48	–	35	25.6	3	19	86
–	Nc1ccn([C@@H]2O[C@H](CO)[C@@H](O)C2(F)F)c(=O)n1 [Gemcitabine, reference compound]	1	6	2	2	1	7	2.4	3	3	2
–	Nc1nc(Cl)nc2c1ncn2[C@@H]1O[C@H](CO)[C@@H](O)[C@@H]1F [Clofarabine, reference compound]	1240	63	40	106	–	86	116	180	125	51
–	Nc1ncnc2c1ccn2[C@@H]1O[C@H](CO)[C@@H](O)[C@H]1O [Tubercidin, reference compound]	98	48	11	1	–	1	10.3	11	18	21
–	COc1ccc(-c2cn([C@@H]3O[C@H](CO)[C@@H](O)[C@H]3O)c3ncnc(N)c23)cc1 [Compound 2b, 4-Amino-5-(4-methoxyphenyl)-7-(β-D-ribofuranosyl)-7H-pyrrolo[2,3-d]pyrimidine]	811	1110	856	633	–	701	768	544	152	4300
–	Nc1ncnc2c1c(-c1cccs1)cn2[C@@H]1O[C@H](CO)[C@@H](O)[C@H]1O [Compound 2g, 4-Amino-7-(β-D-ribofuranosyl)-5-(thiophen-2-yl)-7H-pyrrolo[2,3-d]pyrimidine]	12	1620	3.7	2.6	–	7	22.6	11	133	35
